# According to PubChem BioAssay AID1963853 (Molecular Pharmacology Branch, DTP, NCI, 2024):
# Test system: 266295-075-R-J1-PDC spheroid viability
# Test: Anticancer human tumor 266295-075-R-J1-PDC patient-derived head and neck squamous carcinoma cell line growth inhibition [POLQ]
# Details: spheroids with HUVEC and MSC; for IC50: curve of first compound; for viability, T/C: stronger effect = lower value
# Method in brief: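 PDC + HUVEC + MSC complex spheroids; POLQ inhibitors ± partner drugs; top conc. at/near clinical Cmax, else 10 microM (SN-38 1 microM), half-log dilutions; 37 degrees C, 5% CO2.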
# [1] = second compound 0.0316 µM, first compound 0.0316 µM
# [2] = second compound 0.0316 µM, first compound 0.1 µM
# [3] = second compound 0.0316 µM, first compound 0.316 µM
# [4] = second compound 0.0316 µM, first compound 1 µM
# [5] = second compound 0.0316 µM, first compound 3.16 µM
# [6] = second compound 0.0316 µM, first compound 10 µM
# [7] = second compound 0.1 µM, first compound 0.0316 µM
# [8] = second compound 0.1 µM, first compound 0.1 µM
# [9] = second compound 0.1 µM, first compound 0.316 µM
# [10] = second compound 0.1 µM, first compound 1 µM
# [11] = second compound 0.1 µM, first compound 3.16 µM
# [12] = second compound 0.1 µM, first compound 10 µM
# [13] = second compound 0.316 µM, first compound 0.0316 µM
# [14] = second compound 0.316 µM, first compound 0.1 µM
# [15] = second compound 0.316 µM, first compound 0.316 µM
# [16] = second compound 0.316 µM, first compound 1 µM
# [17] = second compound 0.316 µM, first compound 3.16 µM
# [18] = second compound 0.316 µM, first compound 10 µM
# [19] = second compound 1 µM, first compound 0.0316 µM
# [20] = second compound 1 µM, first compound 0.1 µM
# [21] = second compound 1 µM, first compound 0.316 µM
# [22] = second compound 1 µM, first compound 1 µM
# [23] = second compound 1 µM, first compound 3.16 µM
# [24] = second compound 1 µM, first compound 10 µM
# [25] = second compound 3.16 µM, first compound 0.0316 µM
# [26] = second compound 3.16 µM, first compound 0.1 µM
# [27] = second compound 3.16 µM, first compound 0.316 µM
# [28] = second compound 3.16 µM, first compound 1 µM
# [29] = second compound 3.16 µM, first compound 3.16 µM
# [30] = second compound 3.16 µM, first compound 10 µM
# [31] = second compound 10 µM, first compound 0.0316 µM
# [32] = second compound 10 µM, first compound 0.1 µM
# [33] = second compound 10 µM, first compound 0.316 µM
# [34] = second compound 10 µM, first compound 1 µM
# [35] = second compound 10 µM, first compound 3.16 µM
# [36] = second compound 10 µM, first compound 10 µM
# 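Note: spheroids exposed to compounds for seven days before readout.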
smiles,measurement,setting,value
CCc1cc2c(N3CCc4c(cc(Cn5ccnc5)cc4-c4cn(C)nc4C(F)(F)F)C3=O)cc(C)nc2c(OC)n1 + Nc1ccc(C#CCN(C(=O)Cc2ncc(C(F)(F)F)cc2C(F)(F)F)c2ccc(F)cc2)nn1,IC50,second compound 0.0316 µM,> 10 µM
same,IC50,second compound 0.1 µM,> 10 µM
same,IC50,second compound 0.316 µM,> 10 µM
same,IC50,second compound 1 µM,> 10 µM
same,IC50,second compound 3.16 µM,> 10 µM
same,IC50,second compound 10 µM,> 10 µM
same,"viability, T/C",[1],103%
same,"viability, T/C",[2],96.2%
same,"viability, T/C",[3],127%
same,"viability, T/C",[4],141%
same,"viability, T/C",[5],122%
same,"viability, T/C",[6],149%
same,"viability, T/C",[7],112%
same,"viability, T/C",[8],113%
same,"viability, T/C",[9],105%
same,"viability, T/C",[10],141%
same,"viability, T/C",[11],163%
same,"viability, T/C",[12],137%
same,"viability, T/C",[13],102%
same,"viability, T/C",[14],105%
same,"viability, T/C",[15],91%
same,"viability, T/C",[16],144%
same,"viability, T/C",[17],129%
same,"viability, T/C",[18],152%
same,"viability, T/C",[19],106%
same,"viability, T/C",[20],94.2%
same,"viability, T/C",[21],96.7%
same,"viability, T/C",[22],136%
same,"viability, T/C",[23],123%
same,"viability, T/C",[24],133%
same,"viability, T/C",[25],95.3%
same,"viability, T/C",[26],109%
same,"viability, T/C",[27],130%
same,"viability, T/C",[28],126%
same,"viability, T/C",[29],118%
same,"viability, T/C",[30],120%
same,"viability, T/C",[31],106%
same,"viability, T/C",[32],93.9%
same,"viability, T/C",[33],106%
same,"viability, T/C",[34],115%
same,"viability, T/C",[35],127%
same,"viability, T/C",[36],139%
COc1cc2cc(C(=O)CCC(=O)O)sc2cc1OC + Nc1ccc(C#CCN(C(=O)Cc2ncc(C(F)(F)F)cc2C(F)(F)F)c2ccc(F)cc2)nn1,IC50,second compound 0.0316 µM,> 10 µM
same,IC50,second compound 0.1 µM,> 10 µM
same,IC50,second compound 0.316 µM,> 10 µM
same,IC50,second compound 1 µM,> 10 µM
same,IC50,second compound 3.16 µM,> 10 µM
same,IC50,second compound 10 µM,> 10 µM
same,"viability, T/C",[1],119%
same,"viability, T/C",[2],81%
same,"viability, T/C",[3],82.3%
same,"viability, T/C",[4],89.5%
same,"viability, T/C",[5],94.8%
same,"viability, T/C",[6],99.7%
same,"viability, T/C",[7],101%
same,"viability, T/C",[8],87.7%
same,"viability, T/C",[9],84.3%
same,"viability, T/C",[10],127%
same,"viability, T/C",[11],82.2%
same,"viability, T/C",[12],80.6%
same,"viability, T/C",[13],109%
same,"viability, T/C",[14],112%
same,"viability, T/C",[15],104%
same,"viability, T/C",[16],79.8%
same,"viability, T/C",[17],104%
same,"viability, T/C",[18],79.1%
same,"viability, T/C",[19],86.4%
same,"viability, T/C",[20],106%
same,"viability, T/C",[21],102%
same,"viability, T/C",[22],83%
same,"viability, T/C",[23],117%
same,"viability, T/C",[24],90.9%
same,"viability, T/C",[25],105%
same,"viability, T/C",[26],106%
same,"viability, T/C",[27],98.9%
same,"viability, T/C",[28],81.8%
same,"viability, T/C",[29],85.7%
same,"viability, T/C",[30],104%
same,"viability, T/C",[31],82.5%
same,"viability, T/C",[32],83.7%
same,"viability, T/C",[33],86.4%
same,"viability, T/C",[34],102%
same,"viability, T/C",[35],87.5%
same,"viability, T/C",[36],88%
